Measured values taken from ChEMBL document CHEMBL1201862, “PubChem BioAssay data set” (2004).
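Cells were grown in 96-well plates and exposed to each compound for 48 hours at five concentrations; endpoints were interpolated linearly between bracketing concentrations, or set to the highest concentration if not reached. GI50 marks 50% less growth.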 Calls of active or inactive are those of the source. No stated cut-off is given here; in the data, active = GI50 up to about 1.1 µM and inactive = higher. *1 amine or outer side, *2 acyl side, *3 side chain or, on linkers, in order; H or OH if unused. Where a SMILES comes first, the peptide text is derived from it. Bridges are numbered along the chain shown (N, C = ends). Roman numbers before positions name the chains, in order. [ ]: non-standard residue; d: D form. Actinocin(9to1) = Cc1c2oc3c(C)ccc(C(=O)[*:1])c3nc-2c(C(=O)[*:2])c(N)c1=O; NMeV = CN[CH](C(=O)O)C(C)C; Sar = CNCC(=O)O

Experiments:
Assay in all cases: NCI-60 cell line screen, 48 h
[1] = tested on: LOX IMVI
[2] = tested on: K562
[3] = tested on: M14
[4] = tested on: SK-MEL-5
[5] = tested on: OVCAR-3
[6] = tested on: COLO 205
[7] = tested on: T47D
[8] = tested on: CAKI-1
[9] = tested on: RPMI-8226
[10] = tested on: HCT-116
[11] = tested on: Malme-3M
[12] = tested on: UACC-62
[13] = tested on: IGROV-1
[14] = tested on: NCI-H460
[15] = tested on: OVCAR-8
[16] = tested on: OVCAR-5
[17] = tested on: OVCAR-4
[18] = tested on: HT-29
[19] = tested on: U-251
[20] = tested on: SNB-19

| SMILES | GI50 [1] | GI50 [2] | GI50 [3] | GI50 [4] | GI50 [5] | GI50 [6] | GI50 [7] | GI50 [8] | GI50 [9] | GI50 [10] | GI50 [11] | GI50 [12] | GI50 [13] | GI50 [14] | GI50 [15] | GI50 [16] | GI50 [17] | GI50 [18] | GI50 [19] | GI50 [20] |
| --- | --- | --- | --- | --- | --- | --- | --- | --- | --- | --- | --- | --- | --- | --- | --- | --- | --- | --- | --- | --- |
| Cc1c2oc3c(C)ccc(C(=O)NC4C(=O)NC(Cc5ccccc5)C(=O)N5CCCC5C(=O)N(C)CC(=O)N(C)C(C(C)C)C(=O)OC4C)c3nc-2c(C(=O)NC2C(=O)NC(Cc3ccccc3)C(=O)N3CCCC3C(=O)N(C)CC(=O)N(C)C(C(C)C)C(=O)OC2C)c(N)c1=O (configuration not stated) (I: TFP[Sar][NMeV] / II: TFP[Sar][NMeV]; ester I:1-I:C, II:1-II:C; linker I:N-II:N via Actinocin(9to1); configuration not given here) | < 0.001 µM (active) | < 0.001 µM (active) | 0.0105 µM (active) | < 0.001 µM (active) | < 0.001 µM (active) | < 0.001 µM (active) | < 0.001 µM (active) | 0.00151 µM (active) | < 0.001 µM (active) | < 0.001 µM (active) | < 0.001 µM (active) | < 0.001 µM (active) | < 0.001 µM (active) | < 0.001 µM (active) | < 0.001 µM (active) | 0.00484 µM (active) | 0.0171 µM (active) | < 0.001 µM (active) | < 0.001 µM (active) | – |
| CCCCCCCCCCCCCCCCCCNc1ccn(C2OC(COP(=O)(O)OCC3OC(n4cc(C)c(=O)[nH]c4=O)CC3N=[N+]=[N-])C(O)C2O)c(=O)n1 (configuration not stated) | 16.4 µM (inactive) | 18.7 µM (inactive) | 20.2 µM (inactive) | 22.8 µM (inactive) | 36.9 µM (inactive) | 14.5 µM (inactive) | 34.8 µM (inactive) | 22.4 µM (inactive) | 11.8 µM (inactive) | 39.7 µM (inactive) | 16.9 µM (inactive) | 19.1 µM (inactive) | 19.1 µM (inactive) | 21 µM (inactive) | 21.8 µM (inactive) | 16.7 µM (inactive) | 25.7 µM (inactive) | 19.2 µM (inactive) | 16.7 µM (inactive) | 19.2 µM (inactive) |
| COC1(C)CP(=O)(OC(C)C)CC(C)=C1Cl (configuration not stated) | 11.7 µM (inactive) | 3.36 µM (inactive) | 13.7 µM (inactive) | 12.4 µM (inactive) | 10.7 µM (inactive) | 14.5 µM (inactive) | 13.6 µM (inactive) | 17 µM (inactive) | 3.78 µM (inactive) | 6.37 µM (inactive) | 17.3 µM (inactive) | 10.2 µM (inactive) | 11.6 µM (inactive) | 18.3 µM (inactive) | 16.1 µM (inactive) | 18.8 µM (inactive) | 15 µM (inactive) | 12.3 µM (inactive) | 10.6 µM (inactive) | 28.4 µM (inactive) |
| COC1CC(OC2CCC3(C)C(=CCC4C3C(OC(C)=O)C(OC(=O)CC(C)C)C3(C)C(C(C)=O)CCC43O)C2)OC(C)C1OC1CC(OC)C(OC2CC(OC)C(OC3OC(C)C(O)C(OC)C3O)C(C)O2)C(C)O1 (configuration not stated) | 20.2 µM (inactive) | 36.6 µM (inactive) | 38.7 µM (inactive) | 18.7 µM (inactive) | 43.9 µM (inactive) | 22 µM (inactive) | 38.2 µM (inactive) | 44 µM (inactive) | 17.7 µM (inactive) | 26.7 µM (inactive) | 43 µM (inactive) | 26.1 µM (inactive) | 32.4 µM (inactive) | 28.7 µM (inactive) | 29.2 µM (inactive) | 86.7 µM (inactive) | 39.5 µM (inactive) | 19.9 µM (inactive) | 37.8 µM (inactive) | 86.5 µM (inactive) |
| CCCCC1(N=[N+]=[N-])C(=O)C2C=CC=C3c4ccccc4N(C1=O)C32 (configuration not stated) | 17.9 µM (inactive) | 17.3 µM (inactive) | 19.3 µM (inactive) | 16.4 µM (inactive) | 21.6 µM (inactive) | 18.5 µM (inactive) | 14.1 µM (inactive) | 19.8 µM (inactive) | 17.7 µM (inactive) | 18.1 µM (inactive) | 23 µM (inactive) | 23.1 µM (inactive) | 11.3 µM (inactive) | 17.2 µM (inactive) | 20.1 µM (inactive) | 19.8 µM (inactive) | 21.6 µM (inactive) | 14.1 µM (inactive) | 18.7 µM (inactive) | 22.1 µM (inactive) |
| Nc1nc(Cl)c(/N=N/c2ccc(Cl)cc2)c(NCC2(CO)CCC(CCc3ccccc3)C2)n1 (configuration not stated) | 1.79 µM (inactive) | 0.841 µM (active) | 8.81 µM (inactive) | 1.37 µM (inactive) | 11 µM (inactive) | 4.86 µM (inactive) | 3.94 µM (inactive) | 2.8 µM (inactive) | 12.1 µM (inactive) | 6.11 µM (inactive) | 14.8 µM (inactive) | 10.4 µM (inactive) | 6.22 µM (inactive) | 12.7 µM (inactive) | 5.4 µM (inactive) | 15.4 µM (inactive) | 1.5 µM (inactive) | 12.1 µM (inactive) | 14.1 µM (inactive) | 19.5 µM (inactive) |
| COc1ccc2oc(=O)c(-c3nc4ccccc4s3)cc2c1 | 17.8 µM (inactive) | > 100 µM (inactive) | 22.7 µM (inactive) | 33.5 µM (inactive) | 14.2 µM (inactive) | 54.1 µM (inactive) | 20.6 µM (inactive) | 18.5 µM (inactive) | > 62.7 µM (inactive) | 11.6 µM (inactive) | 8.61 µM (inactive) | 43.5 µM (inactive) | 12.8 µM (inactive) | 16.6 µM (inactive) | 14.9 µM (inactive) | 23 µM (inactive) | 20.8 µM (inactive) | 13.6 µM (inactive) | 15 µM (inactive) | 46.7 µM (inactive) |
| CCCCC1=CC1(C#N)[N+](=O)[O-] (configuration not stated) | 31.3 µM (inactive) | 22.3 µM (inactive) | 30.8 µM (inactive) | 36.5 µM (inactive) | > 100 µM (inactive) | > 100 µM (inactive) | > 100 µM (inactive) | > 100 µM (inactive) | 25.1 µM (inactive) | 33.1 µM (inactive) | 53.6 µM (inactive) | 60.3 µM (inactive) | > 100 µM (inactive) | > 100 µM (inactive) | > 100 µM (inactive) | > 100 µM (inactive) | > 100 µM (inactive) | > 100 µM (inactive) | > 100 µM (inactive) | > 100 µM (inactive) |
| NC(=S)N/N=C1/CCCC2CCCC[C@@H]12 (some centres not stated) | > 100 µM (inactive) | > 100 µM (inactive) | > 100 µM (inactive) | 97.3 µM (inactive) | > 100 µM (inactive) | > 100 µM (inactive) | 37.4 µM (inactive) | > 100 µM (inactive) | > 100 µM (inactive) | – | > 100 µM (inactive) | > 100 µM (inactive) | > 100 µM (inactive) | > 100 µM (inactive) | > 100 µM (inactive) | > 100 µM (inactive) | > 100 µM (inactive) | > 100 µM (inactive) | > 100 µM (inactive) | > 100 µM (inactive) |
| CCN(CCCl)CCCCNc1c2ccccc2nc2ccc(OC)cc12 | 0.149 µM (active) | 0.2 µM (active) | 1.12 µM (inactive) | 0.373 µM (active) | 1.15 µM (inactive) | 0.258 µM (active) | 0.191 µM (active) | 0.394 µM (active) | 0.0535 µM (active) | 0.0542 µM (active) | 0.957 µM (active) | 0.171 µM (active) | 0.163 µM (active) | 0.0601 µM (active) | 0.305 µM (active) | 0.659 µM (active) | 0.7 µM (active) | 0.13 µM (active) | 0.239 µM (active) | 0.918 µM (active) |
| CCC(C)C1NC(=O)C(NC(=O)C(CC(C)C)N(C)C(=O)[C@@H]2C=CCN2C(=O)[C@H](C)O)C(C)OC(=O)[C@H](Cc2ccc(OC)cc2)N(C)C(=O)[C@@H]2CCCN2C(=O)[C@H](CC(C)C)NC(=O)C(C)C(=O)[C@H](C(C)C)OC(=O)CC1O (some centres not stated) | 0.00242 µM (active) | 0.0021 µM (active) | 0.00188 µM (active) | 0.000914 µM (active) | 0.00393 µM (active) | 0.00143 µM (active) | 0.0013 µM (active) | 0.00984 µM (active) | 0.00267 µM (active) | 0.00103 µM (active) | 0.00219 µM (active) | 0.00119 µM (active) | 0.00256 µM (active) | 0.00215 µM (active) | 0.00467 µM (active) | 0.0137 µM (active) | 0.00234 µM (active) | 0.00252 µM (active) | 0.00131 µM (active) | 0.00374 µM (active) |
| COc1cc(/C=C2\CCC/C(=C\c3ccc(O)c(OC)c3)C2=O)ccc1O [CYCLOVALONE] | 1.67 µM (inactive) | 3.22 µM (inactive) | 2.25 µM (inactive) | 2.51 µM (inactive) | 2.74 µM (inactive) | 14.2 µM (inactive) | 3.29 µM (inactive) | 2.81 µM (inactive) | 1.2 µM (inactive) | 2.07 µM (inactive) | 2.17 µM (inactive) | 1.96 µM (inactive) | 2.77 µM (inactive) | 2.59 µM (inactive) | 1.72 µM (inactive) | 9.66 µM (inactive) | 7.35 µM (inactive) | 7.6 µM (inactive) | 2.08 µM (inactive) | 6.15 µM (inactive) |
| CC(C#N)N(CCc1ccccc1)C(=O)c1ccccc1 (configuration not stated) | > 100 µM (inactive) | > 100 µM (inactive) | > 100 µM (inactive) | > 100 µM (inactive) | > 100 µM (inactive) | > 100 µM (inactive) | 39.2 µM (inactive) | > 100 µM (inactive) | > 100 µM (inactive) | > 100 µM (inactive) | > 100 µM (inactive) | > 100 µM (inactive) | > 100 µM (inactive) | – | > 100 µM (inactive) | > 100 µM (inactive) | > 100 µM (inactive) | > 100 µM (inactive) | > 100 µM (inactive) | > 100 µM (inactive) |
